In patent publication US11999782B2, “Therapeutic agents for the treatment of diseases associated with undesired cell proliferation” (Fundació Privada Institutció Catalana de Recerca I Estudis …, priority 2009, dated 2024):

What was measured:
[1] = test system: LIF expression in GBM neurospheres; assay: LIF mRNA by qRT-PCR in GBM neurospheres; type: cell-based, human; settings: 3 hours; for LIF transcript in neurospheres derived from patients: 100 pM, medium without serum
Method: FIG. 3. TGFβ induces the expression of LIF in PCTC and GBM neurospheres. (A) PCTC cells of the 11 samples of the indicated GEM (GBM1-11) were treated with 100 pM TGFβ1 for 3 hours in medium without serum or left untreated, and the expression levels of LIF were determined by means of qRT-PCR. The g-actin was determined as an internal normalization control. (B) GBM neurosphere cells were treated as in A and the expression levels of LIF were determined by means of qRT-PCR as in A. (C) GBM neurospheres were incubated with 100 pM TGFβ1 and/or 2 μM TβRI inhibitor for 3 hours in medium without serum and the mRNA levels of LIF were determined by means of qRT-PCR as in A. (D) GBM1 neurospheres were incubated with 100 pM TGFβ1, TGFβ2 and TGFβ3 for 3 hours in medium without serum and the mRNA levels of LIF were determined by means of qRT-PCR as in A. (E) The levels of LIF protein secreted were determined by means of ELISA in GBM1 neurospheres after 48 hours of treatment with 100 pM TGFβ1.
(§1) The U373MG and A172 cells were a generous gift from J. Rich and D. Bigner and were cultured in DMEM with 10% fetal bovine serum (FBS). The primary culture of tumor cells (PCTC) and the GBM neurospheres were generated as described (Bruna et al., (2007) Cancer Cell 11, 147-160; Gunther et al., (2008) Oncogene. May 1; 27(20):2897-909). Briefly, the samples of tumors were processed in the 30 minutes after the surgical resection. The ground pieces of the samples of human gliomas were digested with 200 U/ml collagenase I (Sigma) and 500 U/ml of DNase I (Sigma) in PBS for 2 hours at 37° C. and with constant vigorous stirring. The suspension of individual cells was filtered through a 70 μm cell filter (BD Falcon) and washed with PBS. Finally, the cells were resuspended and subsequently cultured in DMEM with 10% FBS, for the culture of PCTCs, or in neurosphere medium in the case of the GBM neurospheres. The neurospheres of normal human neuroprogenitors were generated from human embryonic cerebral cortex tissue (12-16 weeks after the conception) collected after voluntary abortions. The samples were processed and cultured as described (Poltavtseva et al. (2002) Brain Res Dev Brain Res 134, 149-154). The neurosphere medium consists of neurobasal medium (Gibco) supplemented with B27 (Gibco), L-glutamine (Gibco), penicillin/streptomycin, and growth factors (20 ng/mL EGF and 20 ng/mL FGF-2 (Peprotech)).
qRT-PCR was performed using Taqman probes from Applied Biosystems, according to the manufacturer's recommendations. The reactions were carried out in a ABI 7000 sequence detector (Perkin Elmer) and the results were expressed as the fold change calculated by means of the DDCt method relative to the control sample or the first quantified sample. The ribosomal unit of 18S or β-actin were used as internal normalization controls.
It was decided to investigate the molecular mechanisms responsible for the effect of TGFβ on GICs. Gene responses to TGFβ in GBM cells which could be involved in the regulation of the self-renewal of GICs were investigated. In a previous work (Bruna et al., 2007), transcriptome analyses were conducted in the U373MG glioma cell line treated with TGFβ and/or a TβRI inhibitor. LIF was among the 63 gene responses to TGFβ in U373MG which were dependent on the activity of TβRI. […] A panel of PCTCs derived from 11 different human GBMs was treated with TGFβ for 3 hours and the levels of LIF mRNA were determined.

[2] = test system: normal human neuroprogenitors; assay: Self-renewal assay of normal human neuroprogenitor neurospheres; type: cell-based; settings: 100 pM TGFβ1 or 20 ng/ml LIF, 7 days
Method: FIG. 8. Effect of TGFβ on the capacity of self-renewal of normal human neuroprogenitors. (A) Immunocytochemistry of the indicated markers was performed in human neuroprogenitor neurospheres. (B) Neurospheres of the sample of GBM1 and of human neuroprogenitors were incubated with the indicated members of the 100 pM TGFβ family for 3 hours and the mRNA levels of LIF were determined. (C, D) Neurosphere cells of normal human neuroprogenitors were incubated in the same conditions that have been described above in FIG. 1D in the presence of 100 pM TGFβ1 or 20 ng/ml LIF for 7 days and the number of newly formed neurospheres (C) and the number total of cells (D) were determined.
as §1
The self-renewal of the neurospheres was evaluated by seeding an identical number of cells at a very low density in wells of a 96-well plate. The cells were treated, in the absence of growth factors, with the indicated compounds and the total number of new neurospheres formed after 7 days in culture was counted (Lee et al. (2008) Cancer Cell 13, 69-80; Reynolds and Weiss, (1996) Dev Biol 175, 1-13; Seaberg and van der Kooy, (2002) J Neurosci 22, 1784-1793).
It was decided to assess whether this effect was specific to tumor cells or was also present in normal neuroprogenitor cells. To answer this question, neuroprogenitor cells were obtained from samples of human fetal cerebral cortex (from 12 to 16 weeks after conception). As has been previously described (Carpenter et al., 1999, Exp Neurol, 158: 265-278; Poltavtseva et al., 2002, Brain Res Dev Brain Res, 134: 149-154; Wright et al., 2003, J Neurochem, 86: 179-195), human neuroprogenitors generated neurospheres when they were grown in serum-free medium supplemented with EGF and FGF and these neurospheres expressed Musashi-1, Sox2 and Nestin similarly to GBM neurospheres (FIG. 8A). First, it was determined if TGFβ induced LIF in normal human neuroprogenitors. […] In fact, the neurospheres treated with TGFβ were smaller and the total number of cells had decreased due to the presence of TGFβ (FIG. 8C, 8D). On the other hand, LIF increased the number and size of the newly formed neurospheres as well as the total number of cells (FIG. 8C, 8D) according to previous articles (Bauer and Patterson, 2006; Wright et al., 2003). Thus, LIF has the same effect on the self-renewal in GBM and normal neurospheres. On the contrary, there is a difference in the effect of TGFβ on the capacity for self-renewal of normal and tumor neurospheres due to the incapacity of TGFβ to induce LIF normal in neuroprogenitors.

Compound	effect on the induction of LIF by TGFβ ([1]; GBM neurospheres, 100 pM TGFβ1 with 2 μM TβRI inhibitor)	number of newly formed neurospheres (normal neuroprogenitors) [2]	size of neurospheres (normal neuroprogenitors) [2]	total number of cells (normal neuroprogenitors) [2]	LIF transcript in neurospheres derived from patients [1]	LIF transcript in neurospheres derived from patients ([1]; listed as TGFβ1)
NC(=O)c1ccc(-c2nc(-c3ccc4c(c3)OCO4)c(-c3ccccn3)[nH]2)cc1 [TβRI inhibitor, SB431542, reference compound]	blocked	–	–	–	–	–
LIF: recombinant leukemia inhibitory factor, an IL-6 type cytokine (Chemicon)	–	increased	increased	increased	–	–
TGFβ: TGFβ1 (R&D Systems), used at 100 pM according to the figure legends	–	did not increase	smaller	decreased	capable of inducing the LIF transcript	capable of inducing LIF
